The text below walks through data of patent publication US9499484B2, “Indole, indoline derivatives, compositions comprising them and uses thereof” (priority 2012, dated 2016).

Usually IC50 stands for the concentration that gives 50% inhibition.

Molecules are shown by their SMILES. Counter-ions that a name gives are not always drawn. Like-named read-outs stand apart in the source and are kept apart here.

One experiment concerns the target T1, BuChE (UniProt P81908).
T1 construct: 120 min incubation; BuChE IC50
It counts as biochemical, human or equine serum. The following applies: read-out: IC50 BuChE 120 min. As for the experimental part: (§1) B. Measurement of Acetylcholinesterase (AChE) and Butylcholinesterase (BuChE) Inhibition In Vitro
(§2) The enzyme was incubated at 37° C. with 6-10 concentrations of the compounds tested and samples were collected at 15, 30, 60 and 120 min Aliquots were transferred to an Elisa multiscan microplate reader (Labsystems) at 15-60 sec time intervals for the determination of residual AChE activity, with Ascent PC software. […] The % inhibition of AChE by each concentration was calculated by comparison with the activity of the enzyme in the absence of drug. […] BuChE-inhibitory activity was determined as described above using BuChE (Sigma Israel) with butylthiocholine iodide (BuTh) 0.075M as a substrate.

Another experiment is described as follows: Radical scavenging, Sin1. Type of experiment: biochemical. The following applies: mean ± SD, three independent experiments.
Experiment [1] in a line: Radical scavenging, glucose oxidase/luminol luminescence. The following applies: concentration reducing luminescence/radical by 50%; mean ± SD, three independent experiments. It counts as biochemical. On the procedure:
A. Measurement of Radical Scavenging
A mixture comprising glucose oxidase (GO), luminol, sodium selenite [IV] ([…]) and cobalt [II] (Co^+2) all in Hank's Balance Salt Solution (HBSS) was used (Ginsburg et al, 2004). The production of H2O2 produces a burst of luminescence within 30-60 sec, which lasts for 7-10 min. The luminescence involves oxidation of SEL+5 to it SEL+6 and also the generation of oxidants, which are catalyzed by Co^+2. This method mimics infection and inflammation conditions in which there is an accumulation of several oxidant species. This method provides a source of several radicals. Reduction in luminescence by the compounds is due to their ability to sequester radicals and was measured after addition of several concentrations of each compound. The concentration of each compound that reduced the luminescence by 50% was calculated.

The subject of another experiment is TNF-α, RAW 264.7 cells. Nature of the experiment: TNF-α reduction in LPS-stimulated RAW 264.7 macrophages. Type of experiment: cell-based, mouse.
For a further experiment, the target named is T2, AChE (UniProt P23795).
T2 sequence (P23795 1-613): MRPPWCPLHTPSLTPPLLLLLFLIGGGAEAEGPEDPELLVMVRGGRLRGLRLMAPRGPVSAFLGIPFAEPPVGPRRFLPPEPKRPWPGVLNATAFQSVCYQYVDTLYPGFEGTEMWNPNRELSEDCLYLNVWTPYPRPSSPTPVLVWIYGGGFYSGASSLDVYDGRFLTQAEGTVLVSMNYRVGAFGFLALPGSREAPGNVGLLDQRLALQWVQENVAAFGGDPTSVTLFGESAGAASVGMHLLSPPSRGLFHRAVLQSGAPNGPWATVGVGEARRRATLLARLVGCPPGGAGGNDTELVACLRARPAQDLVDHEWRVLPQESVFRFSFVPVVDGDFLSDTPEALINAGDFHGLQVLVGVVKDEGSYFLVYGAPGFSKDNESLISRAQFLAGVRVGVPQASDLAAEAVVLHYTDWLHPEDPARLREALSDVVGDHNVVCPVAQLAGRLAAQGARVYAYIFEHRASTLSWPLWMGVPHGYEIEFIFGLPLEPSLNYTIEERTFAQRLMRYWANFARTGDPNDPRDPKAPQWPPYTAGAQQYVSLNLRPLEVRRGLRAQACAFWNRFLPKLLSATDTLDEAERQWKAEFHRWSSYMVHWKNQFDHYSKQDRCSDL
Type of experiment: biochemical, human or bovine erythrocytes. The following applies: read-out: IC50 AChE 120 min. On the procedure:
as §1, §2

The subject of experiment [2] is TNF-α, BV2 mouse microglial cells. Nature of the experiment: TNF-α reduction in LPS-stimulated BV2 microglia. Type of experiment: cell-based. The following applies: for Reduction in TNF-α levels, BV2 Microglia range: concentration range, None = no reduction up till 100 nM. On the procedure: The BV2 mouse microglial cells were created by infecting primary mouse microglia with v-raf/v-myc oncogen-carrying retrovirus and donated by Dr. Sigal Fleisher—Berkovich (Ben-Gurion University of the Negev). The cells were cultured in RPMI 1640 containing 0.4 mM L-Glutamine, 10% FCS, 100 units/ml penicillin, 100 μg/ml streptomycin and maintained in a humidified incubator at 37° C. with 5% CO2. For measurement of the effect of compounds on the release of NO the cells were seeded in a density of 80,000 cells/ml and confluence of about 60%, and incubated with test compounds (in the absence of FCS) for […] All the medium was removed and fresh medium containing FCS and LPS (10 μg/ml) added and the cells maintained at 37° C. for 24 h. The release of NO into the medium was determined by measurement of nitrite levels using Griess reagent reaction. For measurement of protein levels of cytokines cells were seeded in a density of 80,000 and incubated with test compounds (in the absence of FCS) and then with LPS as described above. The medium was centrifuged and supernatants collected after 6 h for TNF-α (Biolegend) and after 20 h for IL-6 (Biolegend).

For a further experiment, the system named is NO, RAW 264.7 cells. Nature of the experiment: NO reduction in LPS-stimulated RAW 264.7 macrophages. Type of experiment: cell-based, mouse.
The test system of experiment [3] is ChE (AChE, BuChE) in plasma, muscle, spleen, brain. Conditions: after ip and or oral administration in mice.
Protocol: E. Acetylcholinesterase (AChE) and Butylcholinesterase (BuChE) Inhibition Ex Vivo
Compounds of the invention or saline were administrated by intraperitoneal (ip) injection or gavage to groups of 6-7 male ICR or Balb C mice (5-6 weeks of age). The mice were sacrificed 15, 30, 60 or 120 min after drug administration and the brain (minus cerebellum), spleen, and muscle were rapidly removed, weighed and put on ice. Blood was also collected in heparinised tubes, centrifuged at 14000 rpm at room temperature for 4 mM to provide plasma. Phosphate buffer pH 7 was added to each tissue to produce concentrations of 1 mg/mL for brain and spleen and 8 mg/mL for muscle. The tissues were homogenised in cold phosphate buffer pH 7 containing 0.1% Triton and centrifuged at 14000 rpm. Aliquots of plasma and the supernatant of all tissues were incubated with AcTh or BuTh and DTNB in phosphate buffer pH 7 and the rate of development of the yellow colour was measured as described above. Enzyme activity was measured for each time and drug concentration and percent inhibition of the AChE or BuChE activity was calculated by comparison with that of control mice injected with saline. Results are represented as p moles acetylthiocholine or butythiocholine hydrolysed/min/gm tissue.
Setting [4] is: Mus musculus, RAW264.7, 6 h, read-out: Reduction in TNF-α levels, RAW Macrophages % peak reduction.
Setting [5] is: concentration range; None = no reduction up till 100 nM.
[6] abbreviates: Mus musculus, RAW264.7, 24 h, read-out: Reduction in NO levels, RAW Macrophages % peak reduction.

With `CCN(C)C(=O)Oc1ccc2c(c1)N(CCC(=O)OC)CC2` [compound 1247, Methyl 3-(6-((Ethyl(methyl)carbamoyl)oxy)indolin-1-yl)propanoate hydrochloride], the half-maximal inhibitory concentration (IC50) on BuChE (Table 3, 120 min incubation) worked out at 6.8 µM; in the experiment “Radical scavenging, Sin1” it was 2.18 ± 0.17 µM; in experiment [1], 0.22 ± 0.04 µM.

With `O=C(O)CCC1CNc2cc(O)ccc21` (centres unmarked) [AN-848, 3-(6-Hydroxyindolin-3-yl) propanoic acid hydrochloride], the IC50 in “Radical scavenging, Sin1” is 3.07 ± 0.66 µM; in experiment [1], 2.34 ± 0.02 µM.

With `CCN(C)C(=O)Oc1ccc2c(c1)NCC2CCC(=O)OC` (centres unmarked) [AN-680, 3-(2-(Methoxycarbonyl)ethyl)-1-indoline-6-yl ethylmethylcarbamate hydrochloride], the Emax in the experiment with TNF-α, RAW 264.7 cells (setting [4]) turned out to be 34.5 ± 1.6%. Also, the IC50 at AChE (Table 3, 120 min incubation) is 55.2 µM; at BuChE (Table 3, 120 min incubation), 3.9 µM; in the experiment “Radical scavenging, Sin1” it was 2.36 ± 0.05 µM; in experiment [1], 1.45 ± 0.05 µM. Also, the “Reduction in TNF-α levels, BV2 Microglia range” value (“Reduction … BV2 Microglia range” for short) in experiment [2] is reported as “None”.

As for `CCN(C)C(=O)Oc1cccc2[nH]cc(CCN(C)C)c12` [AN-1252, 3-(2-(Dimethylamino)ethyl)-1H-indol-4-yl ethyl(methyl)carbamate hydrochloride], in the experiment with NO, RAW 264.7 cells (Mus musculus, RAW264.7, 24 h; read-out: Reduction in NO levels, RAW Macrophages % peak reduction), the Emax is 36.4 ± 1.8%. Besides, the IC50 on BuChE is 0.11 µM.

For `CCN(C)C(=O)Oc1cccc2c1C(CCC(=O)OC)CN2` (centres unmarked) [AN-827, 3-(2-(Methoxycarbonyl)ethyl)indolin-4-yl ethylmethylcarbamate hydrochloride], the Emax with TNF-α, RAW 264.7 cells (setting [4]) is 30 ± 3%. Besides, the “Reduction in TNF-α levels, RAW Macrophages range” value with TNF-α, RAW 264.7 cells (setting [5]) is on record as 10^−1-100 nM. Moreover, in experiment [2], the “Reduction in TNF-α levels, BV2 Microglia % peak reduction” value worked out at 38.5 ± 3.2%. Besides, the “Reduction … BV2 Microglia range” value in experiment [2] is 10^−1-100 nM. Besides, the “ChE inhibition in plasma, muscle, and spleen” value (from here on “ChE inhibition in plasma”) in experiment [3] is listed as “inhibited ChE”. For the same compound, the IC50 on BuChE (Table 3, 120 min incubation) is 0.3 µM; in the experiment “Radical scavenging, Sin1” it was 4.55 ± 0.48 µM; in experiment [1], 1.46 ± 0.05 µM.

In the case of `CCN(C)C(=O)Oc1ccc2c(CCCN)c[nH]c2c1.Cl` [AN-911, 3-(6-((Ethyl(methyl)carbamoyl)oxy)-1H-indol-3-yl)propan-1-aminium chloride], the IC50 at AChE turned out to be 24 µM; at BuChE (Table 3, 120 min incubation) it was 0.1 µM. Also, the Emax in the experiment on NO, RAW 264.7 cells (setting [6]) is 66.6 ± 1.9%. For the same compound, the “Reduction in NO levels by at >20%, RAW Macrophages range” value in the experiment with NO, RAW 264.7 cells (setting [5]) is recorded as 10^−2-100 nM.

Consider `CCN(C)C(=O)Oc1cccc2c1CCN2CCC(=O)OC.Cl` [AN-1243, Methyl 3-(4-((Ethyl(methyl)carbamoyl)oxy)indolin-1-yl)propanoate Hydrochloride], for which the Emax with TNF-α, RAW 264.7 cells (setting [4]) was determined as 20.3 ± 5.4%. In addition, the “Reduction in TNF-α levels, BV2 Microglia % peak reduction” value in experiment [2] came out at 18.6 ± 1.0%. Further, the “Reduction … BV2 Microglia range” value in experiment [2] was 100 nM. In addition, the IC50 stood at 0.7 µM at BuChE (Table 3, 120 min incubation); 8.49 ± 0.003 µM in “Radical scavenging, Sin1”; 0.3 ± 0.01 µM in experiment [1].

As to `COC(=O)CCC1CNc2cc(O)ccc21` (centres unmarked) [AN-682, Methyl 3-(6-hydroxyindolin-3-yl)propanoate hydrochloride], the Emax in the experiment with TNF-α, RAW 264.7 cells (Mus musculus, RAW264.7, 6 h; read-out: Reduction in TNF-α levels, RAW Macrophages % peak reduction) came out at 55 ± 1.3%. For the same compound, the “Reduction in TNF-α levels, RAW Macrophages range” value in the experiment with TNF-α, RAW 264.7 cells (setting [5]) was 10^−1-100 nM. Also, the “Reduction in TNF-α levels, BV2 Microglia % peak reduction” value in experiment [2] was found to be 17.6 ± 1.3%. Also, the “Reduction … BV2 Microglia range” value in experiment [2] is listed as 10^−2-100 nM. Also, the IC50 in “Radical scavenging, Sin1” is 2.33 ± 0.08 µM; in experiment [1] it was 1.34 ± 0.01 µM.

Consider `CCN(C)C(=O)Oc1cccc2[nH]cc(CCCN)c12` [AN-910, 3-(4-((Ethyl(methyl)carbamoyl)oxy)-1H-indol-3-yl)propan-1-aminium chloride], for which, in the experiment on NO, RAW 264.7 cells (setting [6]), the Emax amounted to 29.3 ± 1.2%. Further, the IC50 at BuChE (Table 3, 120 min incubation) worked out at 0.23 µM.

`CCN(C)C(=O)Oc1ccc2c(CCC(=O)OCOC(=O)C(C)(C)C)c[nH]c2c1` [AN-860, (3-(6-(Ethyl(methyl)carbamoyloxy)-1H-indol-3-yl)propanotloxy)methyl pivalate]: the “ChE inhibition in plasma” value in experiment [3] was “inhibited ChE”.

With `CCN(C)C(=O)Oc1ccc2c(c1)NCC2CCC(=O)OC.O=C(O)CC(O)(CC(=O)O)C(=O)O` (centres unmarked) [AN-878, 6-(Ethyl(methyl)carbamoyloxy)-3-(3-methoxy-3-oxopropyl)indolinium citrate], in experiment [3], the “ChE inhibition in plasma” value is reported as “inhibited ChE”.
